From ChEMBL document CHEMBL1201862, “PubChem BioAssay data set” (2004)
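All cell lines were grown in 96-well plates and treated with compound for 48 hours. GI50: concentration for 50% inhibition of growth.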 Calls of active or inactive are those of the source. Cut-off read from the data, not from the text of the source: active = GI50 up to about 1.1 µM and inactive = higher.

What was measured:
Assay in all cases: NCI anticancer screen, dose series, 48 h
A498 = system: A498
DLD-1 = system: DLD-1
DMS-114 = system: DMS-114
DMS-273 = system: DMS-273
EKVX = system: EKVX
HCC 2998 = system: HCC 2998
HT-29 = system: HT-29
LOX IMVI = system: LOX IMVI
M19-MEL = system: M19-MEL
OVCAR-5 = system: OVCAR-5
SF-539 = system: SF-539
SK-OV-3 = system: SK-OV-3
SNB-75 = system: SNB-75
UACC-62 = system: UACC-62
MDA-MB-231 = system: MDA-MB-231
MDA-MB-435 = system: MDA-MB-435
MDA-N = system: MDA-N
PC-3 = system: PC-3
TK-10 = system: TK-10
LXFL 529 = system: LXFL 529

Row | SMILES | GI50 (A498) | GI50 (DLD-1) | GI50 (DMS-114) | GI50 (DMS-273) | GI50 (EKVX) | GI50 (HCC 2998) | GI50 (HT-29) | GI50 (LOX IMVI) | GI50 (M19-MEL) | GI50 (OVCAR-5) | GI50 (SF-539) | GI50 (SK-OV-3) | GI50 (SNB-75) | GI50 (UACC-62) | GI50 (MDA-MB-231) | GI50 (MDA-MB-435) | GI50 (MDA-N) | GI50 (PC-3) | GI50 (TK-10) | GI50 (LXFL 529)
1 | CC(=O)OC1C(O)C(C)OC(OC(=O)C2CCC3C(C2)OC2(CC(OC(=O)/C=C/c4ccccc4)C(C)CO2)C32CO2)C1OC1OC(C)C(O)C(O)C1O (configuration not stated) | 0.0702 µM (active) | 0.335 µM (active) | 0.0371 µM (active) | 0.0416 µM (active) | 0.0417 µM (active) | 0.0373 µM (active) | 0.0419 µM (active) | 0.115 µM (active) | 0.0332 µM (active) | 0.091 µM (active) | 0.0448 µM (active) | 0.0586 µM (active) | 0.0468 µM (active) | 0.039 µM (active) | – | – | – | – | – | –
2 | CC1OC(CO)(n2cnc3c(N)ncnc32)C(O)C1O (configuration not stated) | > 100 µM (inactive) | > 100 µM (inactive) | > 100 µM (inactive) | > 100 µM (inactive) | > 100 µM (inactive) | > 100 µM (inactive) | > 100 µM (inactive) | > 100 µM (inactive) | > 100 µM (inactive) | > 100 µM (inactive) | > 100 µM (inactive) | > 100 µM (inactive) | > 100 µM (inactive) | > 100 µM (inactive) | – | – | – | – | – | –
3 | O=C(O)CN1CCN(CC(=O)O)CCN(CC(=O)O)CC1 | > 33.6 µM (inactive) | – | – | – | 59.2 µM (inactive) | 3.15 µM (inactive) | 3.55 µM (inactive) | > 24.1 µM (inactive) | – | > 32 µM (inactive) | > 25.3 µM (inactive) | 8.38 µM (inactive) | 12.6 µM (inactive) | 7.98 µM (inactive) | > 31.9 µM (inactive) | 30.8 µM (inactive) | 3.7 µM (inactive) | > 28.5 µM (inactive) | > 48.8 µM (inactive) | –
4 | C=CCNC(=O)CN(CC(=O)OC)C1CCCCC1N(CC(=O)OC)CC(=O)OC (configuration not stated) | > 100 µM (inactive) | – | – | – | > 100 µM (inactive) | 70 µM (inactive) | > 100 µM (inactive) | > 100 µM (inactive) | – | > 100 µM (inactive) | > 100 µM (inactive) | > 100 µM (inactive) | – | > 100 µM (inactive) | > 100 µM (inactive) | > 100 µM (inactive) | > 100 µM (inactive) | > 100 µM (inactive) | > 100 µM (inactive) | –
5 | CCOc1ccc2nc(NC(=O)C(=O)C(C(=O)c3ccccc3F)C3OC(=O)c4ccccc43)sc2c1 (configuration not stated) | 25.8 µM (inactive) | 25.3 µM (inactive) | – | 19.1 µM (inactive) | 19.1 µM (inactive) | 15.9 µM (inactive) | – | – | 12.1 µM (inactive) | – | 10.3 µM (inactive) | 24.1 µM (inactive) | 15.1 µM (inactive) | 14.6 µM (inactive) | – | – | – | – | 23.3 µM (inactive) | 19.7 µM (inactive)
6 | Cn1c(=O)c2nc(N3CCCCC3)cnc2n(C)c1=O | > 100 µM (inactive) | > 100 µM (inactive) | – | – | > 100 µM (inactive) | > 100 µM (inactive) | > 100 µM (inactive) | – | > 100 µM (inactive) | > 100 µM (inactive) | > 100 µM (inactive) | > 100 µM (inactive) | > 100 µM (inactive) | > 100 µM (inactive) | – | – | – | – | > 100 µM (inactive) | > 100 µM (inactive)
7 | CNC(=O)N(C)COC | > 100 µM (inactive) | > 100 µM (inactive) | > 100 µM (inactive) | – | > 100 µM (inactive) | > 100 µM (inactive) | > 100 µM (inactive) | > 100 µM (inactive) | > 100 µM (inactive) | > 100 µM (inactive) | > 100 µM (inactive) | > 100 µM (inactive) | > 100 µM (inactive) | > 100 µM (inactive) | – | – | – | – | – | > 100 µM (inactive)
8 | CC(C)CNC1=NCC(C)S1 (configuration not stated) | > 100 µM (inactive) | – | – | – | > 100 µM (inactive) | > 100 µM (inactive) | > 100 µM (inactive) | > 100 µM (inactive) | – | > 100 µM (inactive) | > 100 µM (inactive) | > 100 µM (inactive) | > 100 µM (inactive) | > 100 µM (inactive) | > 100 µM (inactive) | > 100 µM (inactive) | > 100 µM (inactive) | > 100 µM (inactive) | > 100 µM (inactive) | –
9 | C=C1C(=O)OC2C=C(C)CC3C=C(CCC=C(C)CCC12)C(=O)O3 (configuration not stated) | 73.1 µM (inactive) | 54.5 µM (inactive) | 65.9 µM (inactive) | 68.1 µM (inactive) | 62.4 µM (inactive) | 58.7 µM (inactive) | 67 µM (inactive) | 32.5 µM (inactive) | 58.3 µM (inactive) | 101 µM (inactive) | 84.5 µM (inactive) | 121 µM (inactive) | 92.5 µM (inactive) | 54.2 µM (inactive) | – | – | – | – | – | –
10 | Cc1cn(Cc2cn(CC3OC(n4cc(C)c(=O)[nH]c4=O)CC3O)nn2)c(=O)[nH]c1=O (configuration not stated) | > 100 µM (inactive) | – | – | – | > 100 µM (inactive) | > 100 µM (inactive) | – | – | – | > 100 µM (inactive) | > 100 µM (inactive) | > 100 µM (inactive) | > 100 µM (inactive) | > 100 µM (inactive) | > 100 µM (inactive) | > 100 µM (inactive) | > 100 µM (inactive) | > 100 µM (inactive) | > 100 µM (inactive) | –
11 | O=C1C(Cl)N(c2ccccc2Cl)C1c1c[nH]c2ccccc12 (configuration not stated) | – | – | > 100 µM (inactive) | – | > 100 µM (inactive) | – | > 100 µM (inactive) | – | > 100 µM (inactive) | – | > 100 µM (inactive) | > 100 µM (inactive) | 86.9 µM (inactive) | > 100 µM (inactive) | – | – | – | – | > 100 µM (inactive) | –
